≈ marks a conversion by molar mass, not a printed value. Like-named read-outs stand apart in the source and are kept apart here.
Assays:
[1] = test system: HaCaT (immortalized human keratinocytes); test: Cytotoxicity, MTT assay; type: cell-based; details: normal cells, 72 h, mean SD
Method: (§1) MTT assay was performed as previously described. Experiments were repeated three times. […] Decreased relative MTT level means decreased cell viability.

[2] = test system: SW480 (primary colon cancer); test: Cytotoxicity, MTT assay; type: cell-based, human; details: mean SD
Method: as §1

[3] = test system: SW620 (metastatic colon cancer); test: Cytotoxicity, MTT assay; type: cell-based, human; details: 72 h, mean SD
Method: as §1

[4] = test system: M. tuberculosis Spec. 192; test: Tuberculostatic activity, Microplate Alamar Blue Assay (MABA); type: cell-based, Mycobacterium tuberculosis; details: Mycobacterium tuberculosis
[5] = test system: M. tuberculosis H37Rv; test: as above; type: cell-based, Mycobacterium tuberculosis; details: Mycobacterium tuberculosis
[6] = test system: 30 clinically isolated strains of S. aureus and S. epidermidis; parameters: method as in PMID 28822236, PMID 29499458; details: cited from earlier work
[7] = M. tuberculosis Spec. 192, patient isolate fully sensitive to tuberculostatics, MABA, read-out: MIC
[8] = M. tuberculosis H37Rv, standard strain, MABA, read-out: MIC

Compound: N.N.[Cl][Pt][Cl] [Cisplatin, cisplatin, reference compound]
- IC50 [1]: 6.3 ± 0.7 µM
- IC50 ([2]; 72 h): 10.4 µM
- IC50 [3]: 6.7 ± 1.1 µM

Compound: COc1cccc2c1C(=O)c1c(O)c3c(c(O)c1C2=O)C[C@@](O)(C(=O)CO)C[C@@H]3O[C@H]1C[C@H](N)[C@H](O)[C@H](C)O1 [Doxorubicin, doxorubicin, reference compound]
- IC50 ([1]; Homo sapiens, HaCaT): 0.29 ± 0.11 µM
- IC50 ([2]; Homo sapiens, SW480, 72 h): 0.75 ± 0.1 µM

Compound: CC[C@@H](CO)NCCN[C@@H](CC)CO [Ethambutol (EMB), Ethambutol, reference compound]
- MIC [4, 7]: 2 µg/mL (≈ 9.79 µM)
- MIC [5, 8]: 2 µg/mL (≈ 9.79 µM)

Compound: NNC(=O)c1ccncc1 [Isoniazid (INH), Isoniazid, reference compound]
- MIC ([4]; SPEC.192): 0.125 µg/mL (≈ 0.911 µM)
- MIC ([5]; H37RV): 0.125 µg/mL (≈ 0.911 µM)

Compound: CO[C@H]1/C=C/O[C@@]2(C)Oc3c(C)c(O)c4c(O)c(c(/C=N/N5CCN(C)CC5)c(O)c4c3C2=O)NC(=O)/C(C)=C\C=C\[C@H](C)[C@H](O)[C@@H](C)[C@@H](O)[C@@H](C)[C@H](OC(C)=O)[C@@H]1C [Rifampicin (RMP), Rifampicin, reference compound]
- MIC [4, 7]: 1 µg/mL (≈ 1.22 µM)
- MIC [5, 8]: 1 µg/mL (≈ 1.22 µM)

Compound: [H]/N=C(/N)N[C@H]1[C@H](O)[C@@H](O)[C@H](O[C@@H]2O[C@@H](C)[C@](O)(C=O)[C@H]2O[C@@H]2O[C@@H](CO)[C@H](O)[C@@H](O)[C@@H]2NC)[C@@H](N/C(N)=N\[H])[C@@H]1O [Streptomycin (SM), Streptomycin, reference compound]
- MIC [4, 7]: 1 µg/mL (≈ 1.72 µM)
- MIC [5, 8]: 1 µg/mL (≈ 1.72 µM)

Compound: complex with 1-1-(3,4-dichlorophenyl)-3-[3-(trifluoromethyl) phenyl]thiourea
- MIC [6]: 0.5 to 2 µg/mL
